Reference: ChEMBL document CHEMBL1208728, “Design, synthesis, and structure-activity relationships of pyrazole derivatives as potential FabH inhibitors” (Bioorg Med Chem Lett, 2010)
Converted amounts (≈) assume the structure as drawn.

Legend:
Bacillus subtilis = experiment: Antimicrobial activity against Bacillus subtilis ATCC 6633 by MTT assay; type: functional
Staphylococcus aureus = experiment: Antimicrobial activity against Staphylococcus aureus ATCC 6538 by MTT assay; type: functional
Enterococcus faecalis = experiment: Antimicrobial activity against Streptococcus faecalis ATCC 9790 by MTT assay; type: functional
Pseudomonas aeruginosa = experiment: Antimicrobial activity against Pseudomonas aeruginosa ATCC 13525 by MTT assay; type: functional
Escherichia coli = experiment: Antimicrobial activity against Escherichia coli ATCC 35218 by MTT assay; type: functional
Enterobacter cloacae = experiment: Antimicrobial activity against Enterobacter cloacae ATCC 13047 by MTT assay; type: functional
[1] = target: T1, 3-oxoacyl-[acyl-carrier-protein] synthase 3 (Escherichia coli, UniProt C3TDZ2); experiment: Inhibition of Escherichia coli FabH
T1 sequence (C3TDZ2 whole entry): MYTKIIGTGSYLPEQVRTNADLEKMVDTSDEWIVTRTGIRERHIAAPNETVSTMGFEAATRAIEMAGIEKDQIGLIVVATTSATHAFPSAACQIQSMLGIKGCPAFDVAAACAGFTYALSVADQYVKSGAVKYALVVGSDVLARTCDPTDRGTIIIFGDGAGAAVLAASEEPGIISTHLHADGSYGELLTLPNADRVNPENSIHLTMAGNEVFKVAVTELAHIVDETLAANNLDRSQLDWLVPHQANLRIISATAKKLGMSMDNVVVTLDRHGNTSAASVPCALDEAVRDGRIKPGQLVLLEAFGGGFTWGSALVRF

[2] = Toxicity against RBC assessed as hemolysis; type: cell-based; details: erythrocyte

SMILES	MIC (Bacillus subtilis) [µg/mL]	MIC (Staphylococcus aureus) [µg/mL]	MIC (Enterococcus faecalis) [µg/mL]	MIC (Pseudomonas aeruginosa) [µg/mL]	MIC (Escherichia coli) [µg/mL]	MIC (Enterobacter cloacae) [µg/mL]	IC50 [1] [µM]	LC30 [2] [µg/mL]
COc1ccc(C2=NN(C(C)=O)C(c3ccccc3)C2)cc1 (configuration not stated)	6.25 (≈ 21.2 µM)	> 50	50 (≈ 170 µM)	12.5 (≈ 42.5 µM)	25 (≈ 84.9 µM)	> 50	46.7	> 10000
COc1ccc(C2=NN(C(C)=O)C(c3ccc(OC)cc3)C2)cc1 (configuration not stated)	6.25 (≈ 19.3 µM)	6.25 (≈ 19.3 µM)	12.5 (≈ 38.5 µM)	> 50	3.12 (≈ 9.63 µM)	12.5 (≈ 38.5 µM)	19.6	> 10000
COc1ccc(C2=NN(C(C)=O)C(c3ccc(C)cc3)C2)cc1 (configuration not stated)	25 (≈ 81.1 µM)	6.25 (≈ 20.3 µM)	25 (≈ 81.1 µM)	12.5 (≈ 40.5 µM)	6.25 (≈ 20.3 µM)	3.12 (≈ 10.1 µM)	17.3	> 10000
COc1ccc(C2=NN(C(C)=O)C(c3ccc(Br)cc3)C2)cc1 (configuration not stated)	12.5 (≈ 33.5 µM)	12.5 (≈ 33.5 µM)	3.12 (≈ 8.37 µM)	12.5 (≈ 33.5 µM)	1.56 (≈ 4.18 µM)	> 50	10.4	> 10000
COc1ccc(C2=NN(C(C)=O)C(c3ccccc3Cl)C2)cc1 (configuration not stated)	25 (≈ 76 µM)	> 50	12.5 (≈ 38 µM)	> 50	6.25 (≈ 19 µM)	6.25 (≈ 19 µM)	31.4	> 10000
COc1cc(OC)cc(C2CC(c3ccc(Cl)c(Cl)c3)=NN2C(C)=O)c1 (configuration not stated)	12.5 (≈ 31.8 µM)	25 (≈ 63.6 µM)	50 (≈ 127 µM)	12.5 (≈ 31.8 µM)	> 50	12.5 (≈ 31.8 µM)		
CC(=O)N1N=C(c2ccccc2F)CC1c1ccc(Cl)cc1 (configuration not stated)	12.5 (≈ 39.5 µM)	> 50	12.5 (≈ 39.5 µM)	12.5 (≈ 39.5 µM)	25 (≈ 78.9 µM)	> 50		
CC(=O)N1N=C(c2ccc(C)c(C)c2)CC1c1ccc(Cl)cc1 (configuration not stated)	> 50	1.56 (≈ 4.78 µM)	50 (≈ 153 µM)	6.25 (≈ 19.1 µM)	12.5 (≈ 38.2 µM)	6.25 (≈ 19.1 µM)		
COc1ccc(C2CC(c3ccc(Br)cc3)=NN2C(C)=O)cc1 (configuration not stated)	25 (≈ 67 µM)	12.5 (≈ 33.5 µM)	6.25 (≈ 16.7 µM)	1.56 (≈ 4.18 µM)	50 (≈ 134 µM)	3.12 (≈ 8.37 µM)		
CC(=O)N1N=C(c2ccccc2)CC1c1ccc(Cl)cc1 (configuration not stated)	> 50	12.5 (≈ 41.8 µM)	12.5 (≈ 41.8 µM)	12.5 (≈ 41.8 µM)	25 (≈ 83.7 µM)	25 (≈ 83.7 µM)		
NC[C@H]1O[C@H](O[C@H]2[C@H](O)[C@@H](O[C@H]3O[C@H](CO)[C@@H](O)[C@H](N)[C@H]3O)[C@H](N)C[C@@H]2N)[C@H](N)[C@@H](O)[C@@H]1O [BEKANAMYCIN]	0.39 (≈ 0.807 µM)	3.12 (≈ 6.46 µM)	3.12 (≈ 6.46 µM)	3.12 (≈ 6.46 µM)	1.56 (≈ 3.23 µM)	1.56 (≈ 3.23 µM)		
CC(=O)N1N=C(c2ccc(Br)cc2)CC1c1ccc(F)cc1 (configuration not stated)	25 (≈ 69.2 µM)	1.56 (≈ 4.32 µM)	1.56 (≈ 4.32 µM)	3.12 (≈ 8.65 µM)	12.5 (≈ 34.6 µM)	12.5 (≈ 34.6 µM)		
COc1cc(OC)cc(C2CC(c3ccccc3)=NN2C(C)=O)c1 (configuration not stated)	12.5 (≈ 38.5 µM)	25 (≈ 77.1 µM)	25 (≈ 77.1 µM)	25 (≈ 77.1 µM)	25 (≈ 77.1 µM)	> 50		
CC(=O)N1N=C(c2ccccc2F)CC1c1ccccc1 (configuration not stated)	12.5 (≈ 44.3 µM)	25 (≈ 88.6 µM)	25 (≈ 88.6 µM)	25 (≈ 88.6 µM)	> 50	> 50		
CC(=O)N1N=C(c2ccccc2F)CC1c1ccccc1Cl (configuration not stated)	6.25 (≈ 19.7 µM)	12.5 (≈ 39.5 µM)	25 (≈ 78.9 µM)	12.5 (≈ 39.5 µM)	12.5 (≈ 39.5 µM)	12.5 (≈ 39.5 µM)		
COc1ccc(C2CC(c3ccc(Cl)cc3)=NN2C(C)=O)cc1 (configuration not stated)	12.5 (≈ 38 µM)	> 50	25 (≈ 76 µM)	25 (≈ 76 µM)	25 (≈ 76 µM)	> 50		

More lines, main results first:

MIC (Bacillus subtilis) [µg/mL]	MIC (Staphylococcus aureus) [µg/mL]	MIC (Enterococcus faecalis) [µg/mL]	MIC (Pseudomonas aeruginosa) [µg/mL]	MIC (Escherichia coli) [µg/mL]	MIC (Enterobacter cloacae) [µg/mL]	IC50 [1] [µM]	SMILES	LC30 [2] [µg/mL]
6.25 (≈ 20 µM)	6.25 (≈ 20 µM)	1.56 (≈ 5 µM)	12.5 (≈ 40 µM)	0.39 (≈ 1.25 µM)	12.5 (≈ 40 µM)	4.2	COc1ccc(C2=NN(C(C)=O)C(c3ccc(F)cc3)C2)cc1 (configuration not stated)	> 10000
12.5 (≈ 35.5 µM)	> 50	12.5 (≈ 35.5 µM)	3.12 (≈ 8.87 µM)	> 50	25 (≈ 70.9 µM)		COc1cc(OC)cc(C2CC(c3ccc(C)c(C)c3)=NN2C(C)=O)c1 (configuration not stated)	
6.25 (≈ 19 µM)	25 (≈ 76 µM)	6.25 (≈ 19 µM)	25 (≈ 76 µM)	0.78 (≈ 2.37 µM)	25 (≈ 76 µM)	7.6	COc1ccc(C2=NN(C(C)=O)C(c3ccc(Cl)cc3)C2)cc1 (configuration not stated)	> 10000
> 50	25 (≈ 76.5 µM)	50 (≈ 153 µM)	6.25 (≈ 19.1 µM)	25 (≈ 76.5 µM)	> 50		CC(=O)N1N=C(c2ccc(C)c(C)c2)CC1c1ccccc1Cl (configuration not stated)	
6.25 (≈ 16.5 µM)	25 (≈ 66.2 µM)	6.25 (≈ 16.5 µM)	> 50	12.5 (≈ 33.1 µM)	> 50		CC(=O)N1N=C(c2ccc(Cl)cc2)CC1c1ccc(Br)cc1 (configuration not stated)	
6.25 (≈ 18.8 µM)	> 50	12.5 (≈ 37.5 µM)	25 (≈ 75 µM)	12.5 (≈ 37.5 µM)	25 (≈ 75 µM)		CC(=O)N1N=C(c2ccc(Cl)c(Cl)c2)CC1c1ccccc1 (configuration not stated)	
6.25 (≈ 17.6 µM)	12.5 (≈ 35.3 µM)	50 (≈ 141 µM)	12.5 (≈ 35.3 µM)	12.5 (≈ 35.3 µM)	6.25 (≈ 17.6 µM)		COc1ccc(C2=NN(C(C)=O)C(c3cc(OC)cc(OC)c3)C2)cc1 (configuration not stated)	
